The data set can be described thus: Solubility characterization of 2,6-diphenyl-4,8-diazoadamantan-1-one. It is filed as physicochemical. From the text: This molecule is soluble in propylene glycol and apolar organic solvents, whereas it is insoluble in water and ethanol.

As for 2,6-diphenyl-4,8-diazoadamantan-1-one, under “solvent: apolar organic solvents”, the “solubility in apolar organic solvents” value was “soluble”. Besides, where the note is “solvent: ethanol”, the solubility in ethanol result was “insoluble”. Also, the “solubility in propylene glycol” value (solvent: propylene glycol) is “soluble”. Moreover, the solubility in water result (solvent: water) was “insoluble”.

Source of the values: patent US20100069415A1, “2,6-DIPHENYL-4,8-DIAZOADAMANTAN-1-ONE AND DERIVATIVES THEREOF, PROCESS OF MANUFACTURE AND USE FOR THE FORMULATION OF SOLUTIONS WITH STERILIZING AND DISINFECTANT EFFECT” (PIETRO AFFAITATI, priority 2006, published 2010).
